Results published in ChEMBL document CHEMBL4811278, “Discovery of novel modulators for the PPARα (peroxisome proliferator activated receptor α): Potential therapies for nonalcoholic fatty liver disease” (Bioorg Med Chem, 2021).
Calls of active or inactive are those of the source. The calls are words filed in the database; no cut-off is given here.

Legend:
[1] = tested on: Mus musculus; experiment: Hypolipidemic activity in high fat diet-induced nonalcoholic steatohepatitis C57BL/6J mouse model assessed as reduction in lipid accumulation in liver at 3 mg/kg, po administered once daily for 1 week by Oil Red O staining based assay; type: functional, organism-based; settings: time 1.0 weeks
[2] = target: T1, Peroxisome proliferator-activated receptor alpha (Mus musculus) (UniProt P23204); experiment: In vivo agonist activity at PPARalpha in high fat diet-induced nonalcoholic steatohepatitis C57BL/6J mouse model assessed as increase in LPL mRNA expression in liver administered at 3 mg/kg, po and measured after 24 hrs by quantitative real time PCR analysis; type: functional, organism-based
T1 sequence (whole entry): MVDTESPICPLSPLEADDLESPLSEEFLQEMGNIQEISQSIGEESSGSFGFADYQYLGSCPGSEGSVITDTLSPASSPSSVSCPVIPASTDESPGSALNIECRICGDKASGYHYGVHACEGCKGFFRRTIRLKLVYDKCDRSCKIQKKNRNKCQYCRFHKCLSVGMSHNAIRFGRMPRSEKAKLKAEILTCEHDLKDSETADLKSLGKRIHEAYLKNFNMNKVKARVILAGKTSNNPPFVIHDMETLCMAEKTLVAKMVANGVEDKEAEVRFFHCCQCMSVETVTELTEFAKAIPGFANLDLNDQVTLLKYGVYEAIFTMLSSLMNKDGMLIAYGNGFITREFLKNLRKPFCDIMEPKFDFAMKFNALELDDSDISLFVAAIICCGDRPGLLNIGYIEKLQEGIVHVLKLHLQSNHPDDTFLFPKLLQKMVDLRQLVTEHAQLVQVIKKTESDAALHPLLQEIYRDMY

[3] = target: T1, Peroxisome proliferator-activated receptor alpha (Mus musculus); experiment: In vivo agonist activity at PPARalpha in high fat diet-induced nonalcoholic steatohepatitis C57BL/6J mouse model assessed as increase in LPL mRNA expression in liver administered at 3 mg/kg, po administered once daily for 7 days by quantitative real time PCR analysis; type: functional, organism-based; settings: time 7.0 day
[4] = tested on: Mus musculus; experiment: Upregulation of PPARalpha expression in liver of high fat diet-induced nonalcoholic steatohepatitis C57BL/6J mouse model at 3 mg/kg, po and measured after 24 hrs by quantitative real time PCR analysis; type: functional, organism-based
[5] = tested on: Mus musculus; experiment: Hypolipidemic activity in high fat diet-induced nonalcoholic steatohepatitis PPARalpha knockout C57BL/6J mouse model assessed as reduction in plasma triglyceride levels at 3 mg/kg, po measured after 72 hrs; type: functional, organism-based
[6] = tested on: Mus musculus; experiment: Hypolipidemic activity in high fat diet-induced nonalcoholic steatohepatitis C57BL/6J mouse model assessed as reduction in hepatic […] content at 3 mg/kg, po administered once daily via gavage for 7 days; type: functional, organism-based; settings: time 7.0 day
[7] = target: T1, Peroxisome proliferator-activated receptor alpha (Mus musculus); experiment: In vivo agonist activity at PPARalpha in high fat diet-induced nonalcoholic steatohepatitis C57BL/6J mouse model assessed as increase in mACADM gene expression in liver at 3 mg/kg, po administered once daily for 7 days by quantitative real time PCR analysis; type: functional, organism-based; settings: time 7.0 day
[8] = target: T1, Peroxisome proliferator-activated receptor alpha (Mus musculus); experiment: In vivo agonist activity at PPARalpha in high fat diet-induced nonalcoholic steatohepatitis C57BL/6J mouse model assessed as increase in ACOX1 mRNA expression in liver administered at 3 mg/kg, po administered once daily for 7 days by quantitative real time PCR analysis; type: functional, organism-based; settings: time 7.0 day
[9] = tested on: Mus musculus; experiment: Hypolipidemic activity in high fat diet-induced nonalcoholic steatohepatitis C57BL/6J mouse model assessed as reduction in plasma triglyceride level at 3 mg/kg, po administered once daily via gavage for 7 days; type: functional; settings: 168 h, time 7 day
[10] = target: T1, Peroxisome proliferator-activated receptor alpha (Mus musculus); experiment: In vivo agonist activity at PPARalpha in high fat diet-induced nonalcoholic steatohepatitis C57BL/6J mouse model assessed as increase in Cyp4a3 mRNA expression in liver administered at 3 mg/kg, po administered once daily for 7 days by quantitative real time PCR analysis; type: functional, organism-based; settings: time 7.0 day
[11] = tested on: Mus musculus; experiment: Hypolipidemic activity in wild type high fat diet-induced nonalcoholic steatohepatitis C57BL/6J mouse model assessed as reduction in plasma triglyceride levels at 3 mg/kg, po measured after 72 hrs; type: functional, organism-based
[12] = target: T2, Peroxisome proliferator-activated receptor delta (Homo sapiens, UniProt Q03181); experiment: Agonist activity at Gal4-fused human PPARdelta expressed in monkey CV1 cells assessed as receptor transactivation incubated for 45 hrs by luciferase reporter gene assay; type: cell-based, CV-1
T2 sequence (Q03181 whole entry): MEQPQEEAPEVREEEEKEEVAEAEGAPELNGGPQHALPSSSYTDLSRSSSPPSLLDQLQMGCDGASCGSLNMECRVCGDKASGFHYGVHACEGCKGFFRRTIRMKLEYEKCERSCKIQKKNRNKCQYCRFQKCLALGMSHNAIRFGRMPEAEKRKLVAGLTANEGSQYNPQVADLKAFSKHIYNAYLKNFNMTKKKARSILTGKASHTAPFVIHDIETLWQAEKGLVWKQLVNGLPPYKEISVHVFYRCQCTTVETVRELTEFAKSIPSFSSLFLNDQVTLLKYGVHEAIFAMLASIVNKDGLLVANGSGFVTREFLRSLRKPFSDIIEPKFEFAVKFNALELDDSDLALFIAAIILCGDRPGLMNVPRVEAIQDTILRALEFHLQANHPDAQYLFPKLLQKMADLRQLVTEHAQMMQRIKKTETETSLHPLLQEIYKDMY

[13] = target: T3, Peroxisome proliferator-activated receptor gamma (Homo sapiens, UniProt P37231); experiment: Agonist activity at Gal4-fused human PPARgamma expressed in monkey CV1 cells assessed as receptor transactivation incubated for 45 hrs by luciferase reporter gene assay; type: cell-based, CV-1
T3 sequence (P37231 whole entry): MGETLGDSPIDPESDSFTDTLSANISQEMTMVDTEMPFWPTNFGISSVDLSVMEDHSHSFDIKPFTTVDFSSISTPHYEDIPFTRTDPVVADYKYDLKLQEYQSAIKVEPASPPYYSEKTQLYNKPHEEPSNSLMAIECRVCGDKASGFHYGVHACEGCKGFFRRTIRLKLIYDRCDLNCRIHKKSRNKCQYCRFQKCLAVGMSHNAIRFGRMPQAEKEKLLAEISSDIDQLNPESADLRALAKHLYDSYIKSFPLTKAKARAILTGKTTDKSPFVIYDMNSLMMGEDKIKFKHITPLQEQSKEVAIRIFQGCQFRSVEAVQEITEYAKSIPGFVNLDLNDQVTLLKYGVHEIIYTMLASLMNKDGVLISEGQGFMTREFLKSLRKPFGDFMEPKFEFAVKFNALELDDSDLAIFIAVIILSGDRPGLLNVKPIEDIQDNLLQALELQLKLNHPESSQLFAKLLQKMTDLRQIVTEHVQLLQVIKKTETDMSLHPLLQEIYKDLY

[14] = Toxicity in C57BL/6J mouse assessed as reduction in body weight measured after 24 hrs; settings: in vivo
[15] = tested on: Mus musculus; experiment: Hypolipidemic activity in high fat diet-induced nonalcoholic steatohepatitis C57BL/6J mouse model assessed as reduction in hepatocellular vacuolation at 3 mg/kg, po administered once daily for 1 week by Oil Red O staining based assay; type: functional, organism-based; settings: time 1.0 weeks
[16] = target: T1, Peroxisome proliferator-activated receptor alpha (Mus musculus); experiment: In vivo agonist activity at PPARalpha in high fat diet-induced nonalcoholic steatohepatitis C57BL/6J mouse model assessed as increase in mCPT1A gene expression in liver at 3 mg/kg, po administered once daily for 7 days and measured at >3 days by quantitative real time PCR analysis; type: functional, organism-based; settings: time day >3

For `COc1ccc(Cn2c(CCCc3ccc(OC(C)(C)C(=O)O)cc3)nn(Cc3ccc(C)cc3)c2=O)cc1`, the Activity [1] was “Active”, the Activity [2] was “Active” and the Activity [3] was “Active”. The Activity [4] was “Active”, the Activity [5] was “inactive” and the Activity [6] was “Active”. The Activity [7] was “Active”, the Activity [8] was “Active” and the inhibition in vivo at 3 mg/kg [9] was no less than 50%. The Activity [10] was “Active”, the Activity [11] was “Active” and the EC50 [12] was greater than 10 µM. The EC50 [13] was greater than 10 µM, the Activity [14] was “Non-Toxic” and the Activity [15] was “Active”. For the same compound, the Activity [16] was “Active”.
